Results: US20240261292A1, “COMBINATION THERAPIES” (Janssen Pharmaceutica NV, priority 2021, published 2024)

Tests used:
[1] = tested on: MOLM-13 tumors; test: Efficacy of menin-MLL inhibitor in combination with DHODH inhibitor in MOLM-13 (KMT2A-r) IV model; format: in vivo; settings: MOLM-13 IV, NSG mice
From the text: 15) In Vivo Efficacy of Menin-MLL Inhibitor in Combination with DHODH Inhibitor in Disseminated Models of Human Acute Myeloid Leukemia (MOLM-13 and OCI-AML) 15A) Efficacy of Menin-MLL Inhibitor in Combination with DHODH Inhibitor in MOLM-13 (KMT2A-r) IV Model in NSG Mice
Day 0 is the day of tumor cell implantation and study initiation. In the MOLM-13 efficacy study, mice bearing IV MOLM-13 xenograft tumors were randomly assigned to treatment groups 5 days post-tumor cell engraftment.

[2] = tested on: OCI-AML3 tumors; test: Efficacy of menin-MLL inhibitor in combination with DHODH inhibitor in OCI-AML3 (NPM1c) IV model; format: in vivo; settings: NSG mice
From the text: 15B) Efficacy of Menin-MLL Inhibitor in Combination with DHODH Inhibitor in OCI-AML3 (NPM1c) IV Model in NSG Mice In the OCI-AML3 efficacy study, mice bearing IV OCI-AML3 xenograft tumors were randomly assigned to treatment groups 5 days post-tumor cell engraftment.

[3] = tested on: OCI-AML3 cells; test: In vitro proliferation (spheroid, Incucyte), menin-MLL inhibitor with DHODH inhibitor, OCI-AML3; format: cell-based, human; settings: 8 days
From the text: Spheroid-like growth was monitored in real-time by non-invasive live-cell imaging using the 4× objective of the Incucyte ZOOM live cell imaging system (Essen BioScience), and acquiring images on Day 8. […] The DMSO content was normalized to 0.3% and the percent confluence from the DMSO well was used as baseline response. […] Data from 2 independent experiments from MOLM-13 or 3 independent experiments from OCI-AML3 cells were pooled and analyzed.

[4] = tested on: iCell Cardiomyocytes2 (hSC-CMs); test: Ca2+-fluorescence assay in human pluripotent stem cell-derived cardiomyocytes (CTCM human); format: cell-based; set-up: key to Hazard Scoring Color @ 0.1 μM / Hazard Scoring Color @ 0.2 μM / Hazard Scoring Color @ 0.5 μM / Hazard Scoring Color @ 1 μM / Hazard Scoring Color @ 2.5 μM / Hazard Scoring Color @ 5 μM / Hazard Scoring Color @ 0.3 μM / Hazard Scoring Color @ 3 μM / Hazard Scoring Color @ 10 μM / Hazard Scoring Color @ 30 μM: Green: No concern; Yellow: Low concern; Red: High concern; Black: Very high concern due to arrhythmic events
Procedure: 7) Cardio-Electrophysiological Effects of the Testing Compounds in Synchronously Beating Human Pluripotent Stem Cell-Derived Cardiomyocytes (hSC-CMs) Using a Ca^2+-Fluorescence Assay (CTCM Human)
Compounds were tested in the 96-well plates.
Compounds were tested at 0.1 μM, 0.2 μM, 0.5 μM, 1 μM, 2.5 μM and 5 μM (n=4 per dose) on Cor.4U®-Cardiomyocytes or on iCell® Cardionyocytes2.
Alternatively, compounds were tested at 0.1 μM, 0.3 μM; 1 μM, 3 μM, 10 μM and 30 μM (n=4 per dose) mostly on iCell® Cardiomyocytes2.
Vehicle control: Dimethylsulfoxide (DMSO). The solutions of the compound in DMSO or its solvent (final concentration of 0.1% DMSO; n=8).
Tested compounds were dissolved in DMSO at 1000-fold the intended concentrations. A compound “mother-plate” was made, containing the test compounds and positive and negative controls at 1000-fold the final concentrations. At the experiment day, these stock solutions were diluted with Tyrode (Sigma), supplemented with 10 mM HEPES (Gibco), to 2-fold the intended concentration (in round bottom compound plates). Final DMSO concentration in test solutions and vehicle control was 0.1%.
hSC-CMs (Cor.4U® Cardiomyocytes) were obtained from CDI (Ncardia, Germany). Cells are pre-plated and seeded in fibronectin-coated 96-well plates at a density suited to form a monolayer and maintained in culture in a stage incubator (37° C., 5% CO2), according to the instructions of the cell provider.
Second line hSC derived cardiomyocyte called iCell® Cardiomyocytes2 were purchased from FUJIFILM Cellular Dynamics (USA). The experiments with test drugs are carried out 5 to 7 days after plating the cells onto the plate to have a living, beating monolayer of hiPSC-derived cardiomyocytes. The beating monolayer in 96-well-plates are normally taken from 2 Vials of frozen iCell® Cardiomyocytes2 (≈5 million cells/vial), which will be plated onto three 96-well plates (≈50K/well).
At least one hour before the start of the experiments the normal cell medium was replaced with Tyrode solution with Calcium dye (see below).
Cal 520 dye (AAT Bioquest) was dissolved in 11 ml of Tyrode supplemented with 10 mM HEPES and warmed up to 37 C before adding to the cells.
35 μl cell culture medium was removed from each well and replaced with 35 μl of pre-warmed Cal 520 dye solution and cell plate was incubated for 45 min at 37° C./5% CO2. Cells were incubated for 5 min at 37° C.
Spontaneous electrical activity is recorded, using Cal520™ (AAT Bioquest) calcium fluorescence-dye signalling. This dye integrates the total intracellular calcium activity over the whole well. A bottle of Ca1520 dye (50 μg, MW: 1103/mol) is dissolved with 50 μl DMSO as a stock solution of 0.9 mM. 50 μL of the stock solution of the dye was added to 10 ml Tryodes solution to have dye concentration of 4.5 μM. Subsequently, 35 μl of this dye solution was added into each well, to have a final dye concentration of 1.58 μM. The current dye protocol on this CTCM human assay was established recently (Ivan Kopljar et al, Journal of Pharmacological and toxicological methods 2018. 91: 80-86; Lu et al., Tox Sci 2019. 170 (2): 345-356).
Fluorescent signals (Ca^2+ transient morphology) were measured using the Functional Drug Screen System (FDSS/μCell; Hamamatsu, Japan) and the recordings were subsequently analyzed off-line, using appropriate software e.g., Notocord.
The cell plate was loaded into the FDSS/μCell for a test run: Ca^2+ transients were measured for 4 minutes to check for synchronous beating of the cardiomyocytes in each well. All 96 wells were measured simultaneously (sampling interval: 0.06 s, short exposure time: 10 ms; excitation wavelength 480 nm; emission wavelength 540 nm; FDSS/μCell warmed to 37° C.).
During the compound addition step, 100 μl of the respective double-concentrated test solutions was pipetted into each well simultaneously.
Data were analyzed off-line using appropriate software e.g., Notocord-Hem (version 4.3). […]

[5] = tested on: OCI-AML3 cells; test: Proliferation assay (spheroid), OCI-AML3; format: cell-based, human; settings: 8 days
Procedure: The anti-proliferative effect of menin/MLL protein/protein interaction inhibitor test compounds was assessed inhuman leukemia cell lines. The cell line MOLM-14 harbors a MLL translocation and expresses the MLL fusion protein MLL-AF9, respectively, as well as the wildtype protein from the second allele. OCI-AML3 cells that carry the NPM1c gene mutation were also tested. […] KO-52 was used as a control cell line containing two MLL (KMT2A) wildtype alleles in order to exclude compounds that display general cytotoxic effects.
KO-52 and OCI-AML3 cell lines were propagated in alpha-MEM (Sigma Aldrich) supplemented with 20% heat-inactivated fetal bovine serum (HyClone), 2 mM L-glutamine (Sigma Aldrich) and 50 μg/ml gentamycin (Gibco).
In order to assess the anti-proliferative effects, 200 MOLM-14 cells, 200 OCI-AML3 cells or 300 KO-52 cells were seeded in 200 μl media per well in 96-well round bottom, ultra-low attachment plates (Costar, catalogue number 7007). Cell seeding numbers were chosen based on growth curves to ensure linear growth throughout the experiment. Test compounds were added at different concentrations and the DMSO content was normalized to 0.3%. Cells were incubated for 8 days at 37° C. and 5% CO2. Spheroid like growth was measured in real-time by live-cell imaging (IncuCyteZOOM, Essenbio, 4× objective) acquiring images at day 8. Confluence (%) as a measure of spheroid size was determined using an integrated analysis tool.
In order to determine the effect of the test compounds over time, the confluence in each well as a measure of spheroid size, was calculated. Confluence of the highest dose of a reference compound was used as baseline for the LC (Low control) and the confluence of DMSO treated cells was used as 0% cytotoxicity (High Control, HC).
HC=High Control: Mean confluence (%) (DMSO treated cells);
Dose-response equation was used for the plot of % Effect vs Log10 compound concentration with a variable slope and fixing the maximum to 100% and the minimum to 0%. 2b) MEIS1 mRNA Expression Assay

[6] = Compound 22 0.0125 mg/kg (so in the source) PO daily 28 days
[7] = Compound 22 0.063 mg/kg PO daily 28 days
[8] = Compound 22 0.125 mg/kg PO daily 28 days
[9] = Compound 22 0.25 mg/kg PO daily 28 days
[10] = efficacious dose in mouse xenograft models of 30 mg/kg, (mouse, human), estimated

Compound | % ILS [1, 6] | Median Survival [1, 6] | % ILS [1, 7] | Median Survival [1, 7] | % ILS [2, 8] | Median Survival [2, 8] | % ILS [2, 9] | Median Survival [2, 9] | Growth inhibition, monotherapy (in words) [3] | Hazard Scoring Color @ 0.1 μM ([4]; 0.1 μM, 30 min, iCell Cardiomyocytes2 (Table 12)) | Hazard Scoring Color @ 0.3 μM ([4]; 0.3 μM, 30 min, iCell Cardiomyocytes2 (Table 12)) | Hazard Scoring Color @ 1 μM ([4]; 1 μM, 30 min, iCell Cardiomyocytes2 (Table 12)) | Hazard Scoring Color @ 3 μM ([4]; 3 μM, 30 min, iCell Cardiomyocytes2 (Table 12)) | Hazard Scoring Color @ 10 μM ([4]; 10 μM, 30 min, iCell Cardiomyocytes2 (Table 12)) | Hazard Scoring Color @ 30 μM ([4]; 30 μM, 30 min, iCell Cardiomyocytes2 (Table 12)) | Margin CTCM human 10 μM vs free Cmax [4, 10] | Margin CTCM human 30 μM vs free Cmax [4, 10] | IC50 [5] [nM]
CCn1c(CO)nn(-c2cc3c(C(C)C)cn(-c4ccccc4C)c(=O)c3cc2F)c1=O [Compound 22, 6-(4-Ethyl-3-(hydroxymethyl)-5-oxo-4,5-dihydro-1H-1,2,4-triazol-1-yl)-7-fluoro-4-isopropyl-2-(o-tolyl)isoquinolin-1(2H)-one] | *125% | 40.5 | *111% | 38 | *60% | 41.5 | *65% | 43 | potent growth inhibition | – | – | – | – | – | – | – | – | –
CCN(C(=O)c1cc(F)ccc1Oc1nncnc1N1CCC2(C1)CN([C@H](CCCN(C)CCOC)C(C)C)C2)C(C)C [Compound A1] | – | – | – | – | – | – | – | – | – | Green | Green | Green | Green | Green | yellow | > 16 | > 45 | 80
